Reference: US20190169140A1, “IDO1 INHIBITOR AND PREPARATION METHOD AND APPLICATION THEREOF” (SHANDONG LUYE PHARMACEUTICAL CO., LTD., priority 2016, published 2019)
Marks after values point to notes of the source that are not given here.

Tests used:
[1] = tested on: mice colon cancer CT26; assay: Efficacy against mice colon cancer CT26 transplanted tumor; assay type: in vivo, BALB/c mice; conditions: for Inhibitory Rate for Tumor Weight / Tumor Weight / mean tumor weight compared with the control group: end of experiment; for tumor inhibitory effect compared at the same dose: same dose of 100 mg/kg
Experimental: Research on Efficacy of Anti-Mice Colon Cancer Ct26
In the present research, colon cancer CT26 models were employed to compare differences between compound 231 and compounds 360 and 117 in antitumor effects.
Therefore, the dose of the two compounds, compound 360 and compound 117, in the present experiment was set as 100 mg/kg. In order to observe dose-efficacy relevance of 231, a dose of the compound 231 was set as 25, 50, 100, 200 mg/kg in the present experiment. All drugs were administered by gavage, twice a day.
According to document reports, mice colon cancer CT26 is a commonly used tumor model for evaluating immunological drugs. […] Therefore, CT26-bearng BALB/c models were chosen in the present experiment for research on efficacy and tissue distribution.
In a super-clean bench, each mouse was subcutaneously inoculated with 0.2 mL of the tumor cell suspension at shoulder, with an inoculation amount of 1×10^5 per mouse. When a tumor block grew to be 500-1000 mm^3, the tumor block was taken out, cut into pieces with scissors, and subcutaneously inoculated at shoulder at the mouse's back using a subcutaneous embedding implantation puncture needle (with a diameter of 1.2 mm).
The day of tumor inoculation was defined as Day 0, and the inoculated animals were grouped randomly on the day of inoculation. One day after the inoculation (Day 1), the administration was started. The experiment had 7 groups in total, with 12 animals in each group. See details in Table 12 for information on animal grouping and administration.
It was an experimental cycle when the tumor in the control group grew to have a volume of 3000 mm^3. The following indexes were observed during the experiment.
(1) As for tumor growth curve, when the tumor was measurable, a maximum diameter (a) and a minimum diameter (b) of the tumor were measured once every other day, to calculate the tumor volume (a calculation formula is V=½×a×b^2), and anti-tumor effect of the tested drug was observed dynamically.
(4) As for tumor inhibitory rate, when the experiment was ended, the mice were killed by cervical dislocation, the tumor blocks were taken out and weighed, to calculate the tumor inhibitory rate, where tumor inhibitory rate=(mean tumor weight of the control group-mean tumor weight of the treatment group)/mean tumor weight of the control group×100%), and the tumor blocks were photographed with a digital camera for recording.

[2] = target: T1, CYP2C9 (Homo sapiens, UniProt P11712); assay: Inhibition on human liver microsome CYP2C9; assay type: in vitro ADME; conditions: human liver microsomes; for IC50: 5-in-1 probe substrate
T1 construct: tissue Corning Inc. or XenoTech, LLC. or other suppliers; host or cells: mixed human liver microsomes
Experimental: (§1) The research project aimed at evaluating inhibitory ability of a sample for test on human liver microsome cytochrome P450 isozymes (CYP1A2, CYP2C9, CYP2C19, CYP2D6, and CYP3A4) with use of a 5-in-1 probe substrate for CYP isozymes.
(§2) Mixed human liver microsomes (HLM) were purchased from Corning Inc. (Steuben, N.Y., USA) or XenoTech, LLC. (Lenexa, Kans., USA) or other suppliers, and stored in a condition below −70° C. before use.
(§3) Diluted working solutions of the sample for test in serial concentrations were added to an incubation system containing the human liver microsomes, probe substrate, and accessory factors of a cycling system, and a control containing no sample for test but a solvent was taken as a control for enzymatic activity (100%). Concentration of metabolites generated by the probe substrate in the sample was measured with a method of liquid chromatography-tandem mass spectrometry (LC-MS/MS). Nonlinear regression analysis of mean percentage activity vs concentration of the sample for test was carried out using SigmaPlot (V.11). An IC^50 value was calculated through a three-parameter or four-parameter inflection logarithmic equation.

[3] = target: T2, CYP2C19 (Homo sapiens, UniProt P33261); assay: Inhibition on human liver microsome CYP2C19; assay type: in vitro ADME; conditions: human liver microsomes; for IC50: 5-in-1 probe substrate
T2 construct: tissue Corning Inc. or XenoTech, LLC. or other suppliers; host or cells: mixed human liver microsomes
Experimental: as §1, §2, §3

[4] = target: T3, CYP2D6 (Homo sapiens, UniProt P10635); assay: Inhibition on human liver microsome CYP2D6; assay type: in vitro ADME; conditions: human liver microsomes; for IC50: 5-in-1 probe substrate
T3 construct: tissue Corning Inc. or XenoTech, LLC. or other suppliers; host or cells: mixed human liver microsomes
Experimental: as §1, §2, §3

[5] = target: T4, CYP3A4 (Homo sapiens, UniProt P08684); assay: Inhibition on human liver microsome CYP3A4; assay type: in vitro ADME; conditions: human liver microsomes; for IC50: 5-in-1 probe substrate
T4 construct: tissue Corning Inc. or XenoTech, LLC. or other suppliers; host or cells: mixed human liver microsomes
Experimental: as §1, §2, §3

[6] = Pharmacokinetics experiment of mice in vivo, single intravenous injection; parameters: species or system male CD-1 mice; conditions: Mouse PK, IV 1 mg/kg; for AUC(0-inf) / AUC(0-t) / Vd / clearance / half-life: male, CD-1, plasma
Experimental: The present experiment aimed at researching status of pharmacokinetics of a sample for test in plasma of male CD-1 mice after single intravenous injection.
Three animals in an intravenous group were intravenously injected with the sample for test by 1 mg/kg, and a formulation was 0.2 mg/mL settled solution of 5% DMSO/95% (10% HP-β-CD). 5 minutes, 15 minutes, 30 minutes, 1 hour, 2 hours, 4 hours, 6 hours, 8 hours, and 24 hours after the administration, blood was collected and prepared into a plasma specimen, with an anticoagulant of EDTA-K2. Plasma concentration data was obtained by analyzing the specimen through LC-MS/MS.
The plasma drug concentration data was processed with a non-compartment model using WinNonlin™ Version 6.3 (Pharsight, Mountain View, Calif.) pharmacokinetics software. Following pharmacokinetics parameters were calculated using a log-linear trapezoidal method: elimination phase half-life (T1/2), apparent volume of distribution (Vdss), and clearance rate (CL), mean retention time of drug in body from point 0 to end time point (MRT0-last), mean retention time of drug in body from point 0 to infinite time (MRT0-inf), area under a time-plasma concentration curve from point 0 to end time point (AUC0-last), area under a time-plasma concentration curve from point 0 to infinite time (AUC0-inf), and initial concentration (C0).

T4 sequence (P08684 whole entry): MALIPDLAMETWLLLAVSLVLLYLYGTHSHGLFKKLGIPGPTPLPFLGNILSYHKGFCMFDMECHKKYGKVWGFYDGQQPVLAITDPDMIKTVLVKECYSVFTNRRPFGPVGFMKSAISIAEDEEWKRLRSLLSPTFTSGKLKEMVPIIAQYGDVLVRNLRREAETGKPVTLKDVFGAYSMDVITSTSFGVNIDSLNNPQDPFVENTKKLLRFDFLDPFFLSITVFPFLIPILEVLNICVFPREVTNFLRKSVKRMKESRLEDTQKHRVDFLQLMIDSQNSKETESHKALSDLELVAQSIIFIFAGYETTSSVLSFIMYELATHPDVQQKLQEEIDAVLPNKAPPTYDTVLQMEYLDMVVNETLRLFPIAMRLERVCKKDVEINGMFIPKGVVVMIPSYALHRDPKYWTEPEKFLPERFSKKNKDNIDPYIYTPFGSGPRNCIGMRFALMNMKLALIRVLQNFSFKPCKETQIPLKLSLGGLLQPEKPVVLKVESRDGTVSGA
T2 sequence (P33261 whole entry): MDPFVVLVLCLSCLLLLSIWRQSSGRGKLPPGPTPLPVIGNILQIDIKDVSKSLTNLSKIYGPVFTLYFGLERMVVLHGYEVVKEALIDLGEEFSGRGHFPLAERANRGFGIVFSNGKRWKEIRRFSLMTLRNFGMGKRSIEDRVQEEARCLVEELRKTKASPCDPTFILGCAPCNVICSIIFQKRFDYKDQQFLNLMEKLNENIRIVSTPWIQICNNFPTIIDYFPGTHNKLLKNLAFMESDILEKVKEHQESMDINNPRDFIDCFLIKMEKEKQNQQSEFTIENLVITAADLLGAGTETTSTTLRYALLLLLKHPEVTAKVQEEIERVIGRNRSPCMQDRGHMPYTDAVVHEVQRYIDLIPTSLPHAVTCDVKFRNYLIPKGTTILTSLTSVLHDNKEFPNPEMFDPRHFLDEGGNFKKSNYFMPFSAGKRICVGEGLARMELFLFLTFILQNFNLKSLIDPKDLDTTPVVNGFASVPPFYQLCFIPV
T3 sequence (P10635 whole entry): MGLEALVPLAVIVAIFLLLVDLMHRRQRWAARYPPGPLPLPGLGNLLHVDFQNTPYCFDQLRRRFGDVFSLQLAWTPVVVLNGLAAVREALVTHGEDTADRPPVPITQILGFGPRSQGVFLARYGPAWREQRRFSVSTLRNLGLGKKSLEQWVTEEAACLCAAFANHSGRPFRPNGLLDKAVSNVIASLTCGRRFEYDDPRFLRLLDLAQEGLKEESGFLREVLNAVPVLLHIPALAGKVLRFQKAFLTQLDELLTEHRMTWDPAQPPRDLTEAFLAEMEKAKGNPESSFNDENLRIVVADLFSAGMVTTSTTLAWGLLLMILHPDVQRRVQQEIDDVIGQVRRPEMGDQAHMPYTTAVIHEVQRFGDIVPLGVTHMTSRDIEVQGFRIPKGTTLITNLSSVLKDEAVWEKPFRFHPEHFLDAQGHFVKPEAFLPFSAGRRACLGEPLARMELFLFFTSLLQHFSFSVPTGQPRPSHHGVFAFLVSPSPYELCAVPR
T1 sequence (P11712 whole entry): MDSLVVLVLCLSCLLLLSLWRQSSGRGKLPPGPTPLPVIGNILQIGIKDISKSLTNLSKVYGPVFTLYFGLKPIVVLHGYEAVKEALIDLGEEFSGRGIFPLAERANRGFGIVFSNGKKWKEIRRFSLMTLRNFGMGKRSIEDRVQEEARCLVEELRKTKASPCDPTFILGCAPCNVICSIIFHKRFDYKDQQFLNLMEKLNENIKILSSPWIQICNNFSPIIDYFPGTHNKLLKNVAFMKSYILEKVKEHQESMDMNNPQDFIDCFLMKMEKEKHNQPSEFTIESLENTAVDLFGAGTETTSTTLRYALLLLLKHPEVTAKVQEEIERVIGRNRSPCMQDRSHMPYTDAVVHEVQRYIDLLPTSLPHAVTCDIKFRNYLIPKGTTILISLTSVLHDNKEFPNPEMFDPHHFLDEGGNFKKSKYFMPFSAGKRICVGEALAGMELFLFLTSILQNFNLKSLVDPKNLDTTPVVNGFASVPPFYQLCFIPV

Structure (SMILES): NS(=O)(=O)NCCSc1nonc1/C(=N/O)Nc1ccc(F)c(Br)c1 [Compound 0117]
- mean tumor volume compared with the control group during the test ([1]; 100 mg/kg gavage BID): always less than that of the control group, but without statistical difference
- animals without tumor block when the test was ended ([1]; 100 mg/kg gavage BID, 12 animals): one animal on which no tumor block grew
- Mean Tumor Volume ([1]; 100 mg/kg gavage BID, D12): 517.3 ± 261.9 mm^3
- Mean Tumor Volume ([1]; 100 mg/kg gavage BID, D14): 760.9 ± 335.7 mm^3
- Mean Tumor Volume ([1]; 100 mg/kg gavage BID, D17): 1410.5 ± 734.0 mm^3
- Mean Tumor Volume ([1]; 100 mg/kg gavage BID, Day8): 130.1 ± 31.1 mm^3
- Mean Tumor Volume ([1]; 100 mg/kg gavage BID, Day10): 262.3 ± 131.2 mm^3
- Inhibitory Rate for Tumor Weight ([1]; 100 mg/kg gavage BID): 14.4%
- Tumor Weight ([1]; 100 mg/kg gavage BID): 1.71 ± 0.76 g
- mean tumor weight compared with the control group ([1]; 100 mg/kg gavage BID): less than that of the control group, but without statistical difference

Structure (SMILES): NS(=O)(=O)NCCNc1nonc1C(=NO)Nc1ccc(F)c(Br)c1 [Compound 360, INCB024360, reference compound]
- mean tumor volume compared with the control group during the test ([1]; 100 mg/kg gavage BID): always less than that of the control group, but without statistical difference
- Mean Tumor Volume ([1]; 100 mg/kg gavage BID, D12): 512.0 ± 240.2 mm^3
- Mean Tumor Volume ([1]; 100 mg/kg gavage BID, D14): 949.2 ± 773.3 mm^3
- Mean Tumor Volume ([1]; 100 mg/kg gavage BID, D17): 1531.0 ± 606.0 mm^3
- Mean Tumor Volume ([1]; 100 mg/kg gavage BID, Day8): 95.2 ± 36.6 mm^3
- Mean Tumor Volume ([1]; 100 mg/kg gavage BID, Day10): 303.5 ± 233.3 mm^3
- Inhibitory Rate for Tumor Weight ([1]; 100 mg/kg gavage BID): 29.5%
- Tumor Weight ([1]; 100 mg/kg gavage BID): 1.41 ± 0.81 g
- mean tumor weight compared with the control group ([1]; 100 mg/kg gavage BID): less than that of the control group, but without statistical difference
- tumor inhibitory rate for CT26 ([1]; preliminary experimental research, gavage 100 mg/kg bid): 30-50%
- tumor inhibitory effect compared at the same dose [1]: equivalent tumor inhibitory effect

Structure (SMILES): NC(=O)NCCSc1nonc1/C(=N/O)Nc1ccc(F)c(Br)c1 [Compound 0231]
- tumor volume compared with the control group ([1]; 25 mg/kg (low dose) gavage BID): remarkably less than that of the control group at Day 10 and Day 12
- Mean Tumor Volume ([1]; 25 mg/kg gavage BID, D12): 411.7 ± 275.4* mm^3
- Mean Tumor Volume ([1]; 25 mg/kg gavage BID, D14): 721.9 ± 575.3 mm^3
- Mean Tumor Volume ([1]; 25 mg/kg gavage BID, D17): 1471.2 ± 1269.4 mm^3
- Mean Tumor Volume ([1]; 25 mg/kg gavage BID, Day8): 69.5 ± 21.9 mm^3
- Mean Tumor Volume ([1]; 25 mg/kg gavage BID, Day10): 229.1 ± 76.7* mm^3
- Inhibitory Rate for Tumor Weight ([1]; 25 mg/kg gavage BID): 25.9%
- Tumor Weight ([1]; 25 mg/kg gavage BID): 1.49 ± 1.16 g
- Mean Tumor Volume ([1]; 50 mg/kg gavage BID, D12): 436.8 ± 204.9* mm^3
- Mean Tumor Volume ([1]; 50 mg/kg gavage BID, D14): 661.5 ± 255.6* mm^3
- Mean Tumor Volume ([1]; 50 mg/kg gavage BID, D17): 1242.2 ± 500.9* mm^3
- Mean Tumor Volume ([1]; 50 mg/kg gavage BID, Day8): 94.5 ± 52.5 mm^3
- Mean Tumor Volume ([1]; 50 mg/kg gavage BID, Day10): 234.6 ± 117.6* mm^3
- Inhibitory Rate for Tumor Weight ([1]; 50 mg/kg gavage BID): 29.2%
- Tumor Weight ([1]; 50 mg/kg gavage BID): 1.42 ± 0.56 g
- Mean Tumor Volume ([1]; 100 mg/kg gavage BID, D12): 372.4 ± 308.9* mm^3
- Mean Tumor Volume ([1]; 100 mg/kg gavage BID, D14): 598.6 ± 442.3* mm^3
- Mean Tumor Volume ([1]; 100 mg/kg gavage BID, D17): 1195.4 ± 779.8* mm^3
- Mean Tumor Volume ([1]; 100 mg/kg gavage BID, Day8): 97.9 ± 86.9 mm^3
- Mean Tumor Volume ([1]; 100 mg/kg gavage BID, Day10): 168.2 ± 145.5* mm^3
- Inhibitory Rate for Tumor Weight ([1]; 100 mg/kg gavage BID): 34.0%
- Tumor Weight ([1]; 100 mg/kg gavage BID): 1.32 ± 1.09 g
- Mean Tumor Volume ([1]; 200 mg/kg gavage BID, D12): 300.4 ± 231.8* mm^3
- Mean Tumor Volume ([1]; 200 mg/kg gavage BID, D14): 512.2 ± 351.8* mm^3
- Mean Tumor Volume ([1]; 200 mg/kg gavage BID, D17): 909.7 ± 544.6* mm^3
- Mean Tumor Volume ([1]; 200 mg/kg gavage BID, Day8): 74.2 ± 32.2 mm^3
- Mean Tumor Volume ([1]; 200 mg/kg gavage BID, Day10): 160.5 ± 114.9* mm^3
- Inhibitory Rate for Tumor Weight ([1]; 200 mg/kg gavage BID): 56.8%
- Tumor Weight ([1]; 200 mg/kg gavage BID): 0.87 ± 0.74 g
- mean tumor weight compared with the control group ([1]; 200 mg/kg gavage BID): remarkably less than that of the control group
- mean tumor weight compared with the control group ([1]; 25, 50, 100 mg/kg gavage BID): less than that of the control group, but without statistical difference
- tumor inhibitory effect, dose dependence ([1]; 25, 50, 100, 200 mg/kg gavage BID): dose-dependent manner
- tumor volume compared with the control group ([1]; dose equal to or greater than 50 mg/kg, Day 10 to end of test): always remarkably less than that of the control group
- tumor inhibitory effect compared at the same dose [1]: equivalent tumor inhibitory effect
- inhibiting effect on CYP2C9 in words [2]: relatively weak effect
- IC50 [2]: > 50 µM
- inhibiting effect on CYP2C19 in words [3]: relatively weak effect
- IC50 [3]: 36.4 µM
- inhibiting effect on CYP2D6 in words [4]: relatively weak effect
- IC50 [4]: > 50 µM
- inhibiting effect on CYP3A4 in words [5]: relatively weak effect
- IC50 [5]: > 50 µM
- Conc. (8 h) ([6]; plasma, 8 h): 8.16/ND nM
- AUC(0-inf) [6]: 0.881 µM·h
- AUC(0-t) [6]: 0.852 µM·h
- Vd [6]: 4.85 L/kg
- clearance [6]: 55.1 mL/min/kg
- half-life [6]: 2.44 h

Structure (SMILES): CC(=O)NCCSc1nonc1/C(=N/O)Nc1ccc(F)c(Br)c1 [Compound 0227]
- IC50 [2]: 15.9 µM
- inhibiting effect on CYP2C19 in words [3]: intermediate degree
- IC50 [3]: 3.61 µM
- IC50 [4]: 26.1 µM
- IC50 [5]: 39.2 µM
- AUC(0-inf) [6]: 0.628 µM·h
- AUC(0-t) [6]: 0.624 µM·h
- Vd [6]: 2.66 L/kg
- clearance [6]: 64.2 mL/min/kg
- half-life [6]: 0.867 h
